This is an account of results in patent US4997852A, “Method and composition for achieving cancer chemopreventive and chemotherapeutic activity” (priority 1989, dated 1991).

For data set [1], the system named is chemical induction of tumors in rodent skin, mammary glands, lung and liver. The following applies: cited from earlier work.
A further data set concerns beta-glucuronidase. The following applies: in cells, blood, cited from earlier work.
Data set [2] deals with MCF-7 cells. Briefly: inhibition of MCF-7 breast cancer cell growth in culture (Example III). Type of data set: cell-based, human. The conditions noted are these: for inhibition at 0.01 µM / inhibition at 0.1 µM / inhibition at 1 µM / inhibition at 10 µM: Homo sapiens, MCF7, read-out: inhibition of cell growth. Here is the method:
The MCF-7 cell line was derived from a hormone-dependent metastatic breast cancer. It has retained several characteristics of differentiated mammary epithelium, Soule et al., J. Natl. Cancer Inst. 51:1409-1413 (1973), and the cells contain estrogen receptors. The MCF-7 cell line used was obtained from the OSU Cell Culture Service laboratory, but originated from the Michigan Cancer Foundation, Detroit, Mich. The MCF-7 cells were seeded at 1×10^3 cells/cm^2 in 35 mm wells containing MEM (Earle base medium) supplemented with MEM non-essential amino acids (1.0 mM), L-glutamic acid (2.0 mM), penicillin and streptomycin (100 ug/ml) and fetal calf serum (10%) as described in Ueda et al., Cancer 46:2203-2206, (1980). The cells are maintained at 37° C. in a humidified atmosphere of 5% CO2 /20% O2 with the growth medium replaced twice a week. The retinoids were dissolved in ethanol and added to the culture medium starting 24 hrs. after seeding. […] Glucarate concentrations varied from 10^-5 to 10^-8 M. Cell counts were done with a Coulter counter and viability of the cells was determined by the trypan blue exclusion method and also by their ability to resume growth after removal of inhibitory agents. Cytotoxicity was evaluated by exposing the MCF-7 cells to equimolar concentrations of the agents and examining viability after 6 days of treatment. All experiments were done in triplicate.
In this experiment series glucarate as the soluble potassium salt and 13-cis-RA were evaluated, alone and in combination, for their ability to inhibit the growth of MCF-7 breast cancer cells in culture.
The log transformed dose refers to the level in μM added to the medium as was varied from […] (0.01) μM to 10^-1 μM. The retinoid vehicle, ethanol, was added to all cultures and all values have been corrected for its slight inhibitory effect (7%).

Data set [3] relates to DMBA-induced mammary tumors. In words: chemoprevention of DMBA-induced rat mammary carcinogenesis (Example II). Type of data set: in vivo, female Sprague Dawley rats. As for the experimental part:
(§1) The 13-cis-RA was dissolved in a vehicle consisting of ethanol:tricaprylin:1:4 (v/v) and 4% w/v α-tochopherol. The mixture was added to the meal at the rate of 25 ml/2 kg then stored in the dark at -20° C. […] The same amount of vehicle was also added to the control diet and to the diets containing glucarate. Beginning 5 weeks post DMBA treatment, the rats were examined (palpated) twice every week for mammary tumors. They were also weighed once weekly throughout the 20 week period of the experiment.

The conditions of data set [4]: GL itself; cited from earlier work.
For data set [5], the system named is MCF-7 cells. Briefly: growth of MCF-7 cells in GL/HPR-containing media (Table II). Type of data set: cell-based, human. The following applies: 5 days.
Description: The values shown are the mean +/- ISE for three experiments counted in triplicates. The numbers in parenthesis indicate the number of free floating (mostly non viable) cells in the media.
Data set [6] in a line: weight gain of rats on CGT and HPR diets (FIG. 4). It counts as in vivo, female Sprague Dawley rats. The following applies: prolonged feeding of diets containing CGT and HPR.
Protocol: (§2) They were maintained on the diets for approximately 4 mos., and were examined (palpated) for mammary tumors weekly. […] The retinoid (HPR) was first dissolved in 25 ml of a vehicle consisting of ethanol-tricaprylin-6% α-tocopherol, then thoroughly mixed with powdered rat chow.
The test system of another data set is rat mammary tumors. Briefly: rat mammary tumor chemoprevention and shrinkage, effective dietary levels. It counts as in vivo. The conditions noted are these: for dietary level when used individually: alone.
Data set [7] relates to MCF-7 cells. Briefly: growth of human breast cancer cell line MCF-7, 7 days. The conditions noted are these: MCF7, 168 h, 0.1 μM HPR, within 7 days, read-out: growth, % of the control. It counts as cell-based. Here is the method:
When higher doses (2 mmol/kg diet) of HPR were used, growth arrest was followed within 5 to 10 days by 30% regression of the DMBA-induced mammary tumors. Also, HPR (0.1μM) inhibited the […] growth of the human breast cancer cell line (MCF-7) to 50% of the control within 7 days.

For data set [8] the following is noted: CGT-supplemented diet vs normal chow diet; cited from earlier work.
In data set [9] the test system is 7,12-dimethylbenz(a)anthracene-induced mammary tumors. Briefly: DMBA-induced mammary tumor formation in female Sprague Dawley rats (Example I). The following applies: 1.0% CGT. Type of data set: in vivo.
Protocol: as §2
Protocol: 50 d old female S.D. rats received a single dose 75 mg/kg of
with DMBA, then continued throughout the experiment.
The nature of data set [10]: weights of rats on diets (Example II, Table III). The conditions noted are these: CGT 2%, RA 1.0 mmol/kg diet. Here is the method: as §1
The subject of data set [11] is 7,12-dimethylbenz(a)anthracene-induced mammary tumorigenesis. The conditions noted are these: cited from earlier work.

In general, inhibition refers to the share of the control response that was lost under treatment.

Read-outs that look alike come from different tables or passages of the source.

For the molecule `O=C(O)[C@H](O)[C@@H](O)[C@H](O)[C@H](O)CO` [calcium gluconate, reference compound], the “effect on tumor induction” value in data set [1] (equimolar calcium) is “no effect”.
As for 2,4-di-0-acetyl-D-glucaro-1-lactone, in the data set on beta-glucuronidase (urine, intestine and liver), the inhibition of beta-glucuronidase result was “effective as inhibitors of beta-glucuronidase”.
Take `CC1=C(/C=C/C(C)=C/C=C/C(C)=C\C(=O)O)C(C)(C)CCC1` [13-cis-RA, 13-cis-retinoic acid, reference compound]: in the data set on MCF-7 cells [2], the inhibition at 0.01 µM came to 2%, the inhibition at 0.1 µM worked out at 9.2%, the inhibition at 1 µM worked out at 12% and the inhibition at 10 µM was determined as 52.2%. The “inhibitory activity of retinoid alone” value in the data set on MCF-7 cells [2] (concentrations above 1.0 μM) was “significant inhibitory activity”. Besides, the “effect on tumor incidence over controls” value in data set [3] (1.0 mmol/kg diet 13-cis-RA (group III)) is recorded as “slight, but insignificant, enhancement of tumor incidence”.
For `O=C(O)[C@@H](O)[C@H]1OC(=O)[C@H](O)[C@H]1O` [GL, D-glucaro-1,4-lactone], the “absorption and clearance from the body” value in data set [4] was “too rapidly absorbed and cleared from the body”. For the same molecule, the “No. of viable cells” value in the data set on MCF-7 cells [5] (GL 10^-4 M, control 60400 ± 2147) was found to be 49480 ± 3160. Also, the activity at 1000 µM with MCF-7 cells [5] (Homo sapiens, MCF7, 120 h, GL 10^-3 M, parenthesised, control 11, read-out: free floating cells, % of control) came out at 7%. In addition, in the data set with MCF-7 cells [5] (Homo sapiens, MCF7, 120 h, GL 10^-3 M, read-out: viable cells, % of control), the viability at 1000 µM was determined as 54 ± 3%. Besides, the activity at 100 µM with MCF-7 cells [5] (Homo sapiens, MCF7, 120 h, GL 10^-4 M, parenthesised, control 11, read-out: free floating cells, % of control) was found to be 6%. For the same molecule, in the data set with MCF-7 cells [5] (Homo sapiens, MCF7, 120 h, GL 10^-4 M, read-out: viable cells, % of control), the viability at 100 µM was 82 ± 5%. Moreover, the inhibition of beta-glucuronidase result with beta-glucuronidase (urine and intestine, 4-lactone) is “potent beta-glucuronidase inhibitor”; with beta-glucuronidase (urine and intestine), “potent inhibitor of beta-glucuronidase”.
For the molecule `CC1=C(/C=C/C(C)=C/C=C/C(C)=C/C(=O)Nc2ccc(O)cc2)C(C)(C)CCC1` [HPR, N-(4-hydroxyphenyl)retinamide, reference compound], the “weight gain of rats” value in data set [6] is given as “did not affect weight gain”. The activity at 0.05 µM in the data set with MCF-7 cells [5] (Homo sapiens, MCF7, 120 h, HPR 5 × 10^-8 M, parenthesised, control 11, read-out: free floating cells, % of control) was 7%. Further, the viability at 0.05 µM in the data set with MCF-7 cells [5] (Homo sapiens, MCF7, 120 h, HPR 5 × 10^-8 M, read-out: viable cells, % of control) stood at 56 ± 4%. The “dietary level when used individually” value in the data set with rat mammary tumors was 2.00 mmol/kg. Also, the “minimum dosage consistent with maximum inhibition of carcinogenesis” value with rat mammary tumors (used alone) is 1.0 to 1.5 mmol/kg. For the same molecule, the activity at 0.1 µM in the data set with MCF-7 cells [7] stood at 50%.
`O=C([O-])[C@@H](O)[C@@H](O)[C@H](O)[C@@H](O)C(=O)[O-].[Ca+2]` [CGT, calcium glucarate]: the “weight gain of rats” value in data set [6] is given as “did not affect weight gain”. Besides, the “food quantity and weight gain” value in data set [8] was “identical to those on the normal chow diet”. The inhibition of tumors/rat in [9] was found to be 9%. In addition, in data set [3] (2% CGT, 64 mmol/kg diet (group II)), the “effect on tumor incidence compared to control group” value is listed as “did not show any effect on tumor incidence”. Moreover, the “inhibition of chemical induction of tumors” value in [1] (dietary, rodent skin, mammary glands, lung, liver) was 50-70%. In the data set on rat mammary tumors, the “dietary level when used individually” value was 128 mmol/kg. For the same molecule, the “Weights of rats on diets” value is on record as 182.2 +/-8.8 gm in [10] (0 weeks on diet, control 177.2 +/-10.9); 224.8 +/-11.6 gm in data set [10] (5 weeks on diet, control 218.3 +/-16.9); 250.3 +/-14.2 gm in data set [10] (17 weeks on diet, control 247.0 +/-32.2). Also, in the data set on beta-glucuronidase (urine, intestine and liver), the inhibition of beta-glucuronidase result is “effective as inhibitors of beta-glucuronidase”. Also, the “tumor induction, % of that in controls” value in data set [11] (4% CGT diet, by 28 weeks) is 30%. In addition, the tumor regression entry in data set [11] (chow diet supplemented with CGT) is “some tumors on the chow diet supplemented with CGT underwent regression”.
For the molecule `O=C(O)[C@@H](O)[C@@H](O)[C@H](O)[C@@H](O)C(=O)[O-].[K+]` [GT, potassium hydrogen glucarate], the “increase in inhibition of growth as a function of glucarate concentration” value in the data set on MCF-7 cells [2] (1000-fold range of glucarate, at 13-cis-RA 0.0, 0.1 and 1.0 μM) is given as 7-25%. Further, in the data set on MCF-7 cells [2], the inhibition at 0.01 µM stood at 0%, the inhibition at 0.1 µM came out at 6%, the inhibition at 1 µM stood at 6% and the inhibition at 10 µM stood at 11%. Moreover, the inhibition of beta-glucuronidase entry with beta-glucuronidase (urine, intestine and liver) was “effective as inhibitors of beta-glucuronidase”.
